Reference: ChEMBL document CHEMBL4411322 (J Med Chem, 2019)
Non-standard residues stand in square brackets, D forms with d. Residues, ends and D or L forms follow the SMILES beside them. dNMeF = CN[C@H](Cc1ccccc1)C(=O)O

Tests used:
Integrin alpha-V/beta-6 = Integrin alpha-V/beta-6 (Homo sapiens, UniProt P06756+P18564); assay: Inhibition of LAP binding to human integrin alphavbeta6 receptor after 1 hr by solid-phase binding assay; assay type: protein-complex assay
Integrin alpha-V/beta-8 = Integrin alpha-V/beta-8 (Homo sapiens, UniProt P06756+P26012); assay: Inhibition of LAP binding to human integrin alphavbeta8 receptor after 1 hr by solid-phase binding assay; assay type: protein-complex assay
Homo sapiens = species: Homo sapiens; assay: Selectivity ratio of IC50 for human integrin alphavbeta6 receptor to IC50 for human integrin alphavbeta8 receptor

Integrin alpha-V/beta-8, sequence (P06756 31-889 limits assumed): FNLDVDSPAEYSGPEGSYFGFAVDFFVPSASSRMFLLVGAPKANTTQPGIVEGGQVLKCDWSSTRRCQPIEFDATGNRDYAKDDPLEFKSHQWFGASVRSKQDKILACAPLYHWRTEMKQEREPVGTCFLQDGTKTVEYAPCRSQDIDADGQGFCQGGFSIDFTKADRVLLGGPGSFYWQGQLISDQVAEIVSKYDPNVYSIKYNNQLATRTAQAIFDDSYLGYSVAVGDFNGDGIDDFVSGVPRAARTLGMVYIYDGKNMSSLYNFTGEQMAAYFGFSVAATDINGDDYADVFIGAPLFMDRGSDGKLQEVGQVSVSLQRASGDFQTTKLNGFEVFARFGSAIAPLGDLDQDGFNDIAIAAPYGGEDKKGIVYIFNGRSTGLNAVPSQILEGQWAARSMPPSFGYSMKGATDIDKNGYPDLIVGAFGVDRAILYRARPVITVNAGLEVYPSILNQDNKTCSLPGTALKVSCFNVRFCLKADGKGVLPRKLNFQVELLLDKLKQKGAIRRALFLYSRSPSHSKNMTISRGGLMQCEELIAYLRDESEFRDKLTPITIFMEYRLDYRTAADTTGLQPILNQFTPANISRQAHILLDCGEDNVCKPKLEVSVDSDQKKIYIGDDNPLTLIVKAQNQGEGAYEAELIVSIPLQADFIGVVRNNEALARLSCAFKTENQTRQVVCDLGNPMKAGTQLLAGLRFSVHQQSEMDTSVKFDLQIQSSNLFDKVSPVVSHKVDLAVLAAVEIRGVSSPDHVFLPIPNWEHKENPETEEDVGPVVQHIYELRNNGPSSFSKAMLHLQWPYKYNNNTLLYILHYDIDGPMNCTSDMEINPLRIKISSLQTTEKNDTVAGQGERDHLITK
Integrin alpha-V/beta-8, sequence (P06756 891-1048 limits assumed): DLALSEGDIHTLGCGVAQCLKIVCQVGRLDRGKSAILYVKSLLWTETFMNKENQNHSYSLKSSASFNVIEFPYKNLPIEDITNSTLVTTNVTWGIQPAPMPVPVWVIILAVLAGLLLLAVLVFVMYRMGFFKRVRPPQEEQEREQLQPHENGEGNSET
Integrin alpha-V/beta-8, sequence (P26012 43-769 limits assumed): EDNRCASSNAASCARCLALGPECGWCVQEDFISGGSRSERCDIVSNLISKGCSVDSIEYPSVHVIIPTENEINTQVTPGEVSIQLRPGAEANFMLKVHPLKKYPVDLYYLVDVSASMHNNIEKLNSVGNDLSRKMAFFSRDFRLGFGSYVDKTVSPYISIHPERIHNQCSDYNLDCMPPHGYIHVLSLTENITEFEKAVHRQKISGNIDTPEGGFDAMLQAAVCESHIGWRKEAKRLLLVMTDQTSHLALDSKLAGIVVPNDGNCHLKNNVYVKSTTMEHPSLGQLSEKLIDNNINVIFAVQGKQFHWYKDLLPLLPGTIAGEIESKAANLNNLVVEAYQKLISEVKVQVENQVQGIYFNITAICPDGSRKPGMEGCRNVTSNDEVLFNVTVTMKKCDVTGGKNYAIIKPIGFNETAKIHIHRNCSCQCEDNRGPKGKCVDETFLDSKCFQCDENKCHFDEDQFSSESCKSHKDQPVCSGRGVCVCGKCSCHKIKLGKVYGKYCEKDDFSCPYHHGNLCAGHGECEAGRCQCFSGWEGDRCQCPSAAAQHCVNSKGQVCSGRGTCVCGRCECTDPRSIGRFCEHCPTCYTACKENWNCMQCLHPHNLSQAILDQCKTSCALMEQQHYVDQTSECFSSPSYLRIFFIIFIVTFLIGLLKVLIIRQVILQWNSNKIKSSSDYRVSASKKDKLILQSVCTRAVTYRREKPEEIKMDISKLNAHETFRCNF
Integrin alpha-V/beta-6, sequence (P06756 31-889 limits assumed): as the sequence (P06756 31-889 limits assumed) above
Integrin alpha-V/beta-6, sequence (P06756 891-1048 limits assumed): as the sequence (P06756 891-1048 limits assumed) above
Integrin alpha-V/beta-6, sequence (P18564 22-788 limits assumed): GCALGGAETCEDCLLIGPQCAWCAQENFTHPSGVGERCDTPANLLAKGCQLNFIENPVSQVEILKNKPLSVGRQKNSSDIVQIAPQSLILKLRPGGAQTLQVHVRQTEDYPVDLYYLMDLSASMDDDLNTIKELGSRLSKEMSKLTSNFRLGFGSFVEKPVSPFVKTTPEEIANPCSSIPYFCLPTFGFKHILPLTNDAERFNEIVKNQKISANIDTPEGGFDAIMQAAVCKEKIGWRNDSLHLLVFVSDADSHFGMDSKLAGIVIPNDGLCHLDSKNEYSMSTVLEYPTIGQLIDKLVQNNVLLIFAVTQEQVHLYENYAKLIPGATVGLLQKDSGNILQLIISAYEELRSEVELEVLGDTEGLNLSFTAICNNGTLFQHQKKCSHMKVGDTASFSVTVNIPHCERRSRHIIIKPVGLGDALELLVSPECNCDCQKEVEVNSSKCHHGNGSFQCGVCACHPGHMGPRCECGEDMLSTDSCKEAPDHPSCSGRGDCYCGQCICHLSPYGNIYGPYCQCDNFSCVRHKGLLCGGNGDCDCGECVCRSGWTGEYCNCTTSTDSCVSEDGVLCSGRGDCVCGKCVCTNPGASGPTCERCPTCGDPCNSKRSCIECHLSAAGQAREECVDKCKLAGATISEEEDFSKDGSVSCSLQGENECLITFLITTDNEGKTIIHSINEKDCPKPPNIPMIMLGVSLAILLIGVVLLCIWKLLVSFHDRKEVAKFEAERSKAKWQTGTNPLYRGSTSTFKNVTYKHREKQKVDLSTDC

Compound | IC50 (Integrin alpha-V/beta-6; read-out: IC50) | IC50 (Integrin alpha-V/beta-8; read-out: IC50) | Ratio IC50 (Homo sapiens) | IC50 (Integrin alpha-V/beta-8) | IC50 (Integrin alpha-V/beta-6)
CC(C)C[C@@H]1NC(=O)[C@H](C)NC(=O)[C@H](C)NC(=O)[C@@H]2CCCN2C(=O)[C@H]2CCCN2C(=O)[C@H](CC(C)C)NC(=O)[C@H](CC(=O)O)NC(=O)CNC(=O)[C@H](CCCNC(=N)N)NC(=O)[C@H](C)NC1=O | 140 nM | 47.4 nM | 2.9 | – | –
CC(C)C[C@@H]1NC(=O)[C@H](C)NC(=O)[C@@H]2CCCN2C(=O)[C@H]2CCCN2C(=O)[C@H](CC(C)C)NC(=O)[C@H](CC(=O)O)NC(=O)CNC(=O)[C@H](CCCNC(=N)N)NC(=O)[C@H](C)NC(=O)[C@H](C)NC1=O | 430 nM | 270 nM | 1.6 | – | –
CC(C)C[C@@H]1NC(=O)[C@H](C)NC(=O)[C@@H]2CCCN2C(=O)[C@@H](C(C)C)N(C)C(=O)[C@H](CC(C)C)NC(=O)[C@H](CC(=O)O)NC(=O)CNC(=O)[C@H](CCCNC(=N)N)NC1=O | 31 nM | 19 nM | 1.6 | – | –
CC(=O)NC1C[C@H]2C(=O)NCC(=O)N[C@@H](CC(C)C)C(=O)N[C@@H](CCCNC(=N)N)C(=O)NCC(=O)N[C@@H](CC(=O)O)C(=O)N[C@@H](CC(C)C)C(=O)N3CCC[C@@H]3C(=O)N2C1 (stereo not given in full) | 223 nM | 10.5 nM | 21 | – | –
CC(C)C[C@@H]1NC(=O)[C@H](CC(=O)O)NC(=O)[C@H](CO)NC(=O)[C@H](CCCNC(=N)N)NC(=O)[C@H](Cc2ccccc2)NC(=O)[C@H](C)NC(=O)[C@@H]2CCCN2C(=O)[C@H]2CCCN2C1=O | 369 nM | 5.8 nM | 64 | – | –
CC(C)C[C@@H]1NC(=O)[C@H](C)NC(=O)[C@H](CCCCN)N(C)C(=O)[C@H]2CCCN2C(=O)[C@H](CC(C)C)NC(=O)[C@H](CC(=O)O)NC(=O)CNC(=O)[C@H](CCCNC(=N)N)NC1=O | 62 nM | 44 nM | 1.4 | – | –
CC(C)C[C@@H]1NC(=O)[C@H](CC(=O)O)NC(=O)CNC(=O)[C@H](CCCNC(=N)N)NC(=O)[C@H](CC(=O)O)NC(=O)[C@H](C)NC(=O)[C@@H]2CCCN2C(=O)[C@H]2CCCN2C1=O | 75.9 nM | 6.3 nM | 12 | – | –
CC(C)C[C@@H]1NC(=O)[C@H](CC(=O)O)NC(=O)CNC(=O)[C@H](CCCNC(=N)N)NC(=O)[C@H](CCCCN)NC(=O)[C@H](C)NC(=O)[C@@H]2CCCN2C(=O)[C@H]2CCCN2C1=O | 40.7 nM | 7.32 nM | 5.6 | – | –
CC[C@H](C)[C@@H]1NC(=O)[C@H](C)NC(=O)[C@@H]2CCCN2C(=O)[C@H]2CCCN2C(=O)[C@H](CC(C)C)NC(=O)[C@H](CC(=O)O)NC(=O)CNC(=O)[C@H](CCCNC(=N)N)NC1=O | 40.2 nM | 1.54 nM | 26.1 | – | –
CC(C)C[C@@H]1NC(=O)[C@H](C)NC(=O)[C@H](CC(C)C)N(C)C(=O)[C@H]2CCCN2C(=O)[C@H](CC(C)C)NC(=O)[C@H](CC(=O)O)NC(=O)CNC(=O)[C@H](CCCNC(=N)N)NC1=O | 180 nM | 34 nM | 5.3 | – | –
CC(C)C[C@@H]1NC(=O)[C@H](C)NC(=O)[C@@H]2CCCN2C(=O)[C@@H](CC(C)C)N(C)C(=O)[C@H](CC(C)C)NC(=O)[C@H](CC(=O)O)NC(=O)CNC(=O)[C@H](CCCNC(=N)N)NC1=O | 95 nM | 15 nM | 6.3 | – | –
CC(C)C[C@@H]1NC(=O)[C@H](C)NC(=O)[C@@H]2CCCN2C(=O)[C@H]2CCCN2C(=O)[C@H](CC(C)C)NC(=O)[C@H](CC(=O)O)NC(=O)CNC(=O)[C@H](CCCNC(=N)N)NC1=O (cyclo(RGDL[dP]PAL)) | 31.8 nM | 1.31 nM | 24 | – | –
CC(C)C[C@@H]1NC(=O)[C@H](C)NC(=O)[C@H](C)NC(=O)[C@H](CC(C)C)NC(=O)[C@H](CC(=O)O)NC(=O)CNC(=O)[C@H](CCCNC(=N)N)NC(=O)[C@@H]2CCCN2C(=O)[C@H]2CCCN2C(=O)[C@H](C)NC1=O | 14.5 nM | 614 nM | – | – | –
CC(C)C[C@@H]1NC(=O)[C@H](CC(=O)O)NC(=O)CNC(=O)[C@H](CCCNC(=N)N)NC(=O)[C@H](C)NC(=O)[C@H](CC(C)C)NC(=O)[C@@H]2CCCN2C(=O)[C@H]2CCCN2C(=O)[C@H](C)NC(=O)[C@H](C)NC1=O | 13.4 nM | 109 nM | – | – | –
CC(C)C[C@@H]1NC(=O)[C@H](C)NC(=O)[C@H](C)NC(=O)[C@H](CC(C)C)NC(=O)[C@H](CC(=O)O)NC(=O)[C@H]([C@@H](C)O)NC(=O)[C@H](CCCNC(=N)N)NC(=O)[C@@H]2CCCN2C(=O)[C@H]2CCCN2C(=O)[C@H](C)NC1=O | 1550 nM | 3080 nM | – | – | –
CC(=O)NCCCCCCNC(=N)NCCC[C@@H]1NC(=O)[C@H](CC(C)C)NC(=O)CNC(=O)[C@@H]2CCCN2C(=O)[C@H]2CCCN2C(=O)[C@H](CC(C)C)NC(=O)[C@H](CC(=O)O)NC(=O)CNC1=O | – | 230 nM | – | – | –

Compound | IC50 (Integrin alpha-V/beta-6; read-out: IC50) | IC50 (Integrin alpha-V/beta-8; read-out: IC50) | Ratio IC50 (Homo sapiens) | IC50 (Integrin alpha-V/beta-8) | IC50 (Integrin alpha-V/beta-6)
CC(C)C[C@@H]1NC(=O)[C@H](CC(=O)O)NC(=O)[C@H]([C@@H](C)O)NC(=O)[C@H](CCCNC(=N)N)NC(=O)[C@H](C)NC(=O)[C@H](CC(C)C)NC(=O)[C@@H]2CCCN2C(=O)[C@H]2CCCN2C(=O)[C@H](C)NC(=O)[C@H](C)NC1=O | 94.5 nM | 153 nM | – | – | –
CC(C)C[C@@H]1NC(=O)[C@H](CC(=O)O)NC(=O)CNC(=O)[C@H](CCCNC(=N)N)NC(=O)[C@H](C)NC(=O)[C@@H]2CCCN2C(=O)[C@H]2CCCN2C(=O)[C@H](CC(C)C)NC(=O)[C@H](C)NC(=O)[C@H](C)NC1=O (cyclo(RGDLAAL[dP]PA)) | – | 88.6 nM | – | – | –
CC(C)C[C@@H]1NC(=O)[C@H](C)NC(=O)[C@@H]2CCCN2C(=O)[C@H]2CCCN2C(=O)[C@H](C)NC(=O)[C@H](CC(C)C)NC(=O)[C@H](CC(=O)O)NC(=O)CNC(=O)[C@H](CCCNC(=N)N)NC(=O)[C@H](C)NC1=O | 69.9 nM | 1110 nM | – | – | –
CC(C)C[C@@H]1NC(=O)[C@H](C)NC(=O)[C@@H]2CCCN2C(=O)[C@@H](Cc2ccccc2)N(C)C(=O)[C@H](CC(C)C)NC(=O)[C@H](CC(=O)O)NC(=O)CNC(=O)[C@H](CCCNC(=N)N)NC1=O (cyclo(RGDL[dNMeF]PAL)) | – | – | 15 | – | –
CC(C)C[C@H]1NC(=O)[C@H](CC(=O)O)NC(=O)CNC(=O)[C@H](CCCNC(=N)N)NC(=O)[C@H](Cc2ccccc2)NC(=O)[C@H](C)NC(=O)[C@@H]2CCCN2C(=O)[C@H]2CCCN2C1=O | 559 nM | – | – | Not Active | –
CC(C)C[C@@H]1NC(=O)[C@H](C)NC(=O)[C@@H]2CCCN2C(=O)[C@H]2CCCN2C(=O)[C@H](C)NC(=O)[C@H](CC(C)C)NC(=O)[C@H](CC(=O)O)NC(=O)[C@H]([C@@H](C)O)NC(=O)[C@H](CCCNC(=N)N)NC(=O)[C@H](C)NC1=O | 495 nM | 8410 nM | – | – | –
C[C@@H]1NC(=O)[C@@H]2CCCN2C(=O)[C@H]2CCCN2C(=O)[C@H](CCCCN)NC(=O)[C@H](CC(=O)O)NC(=O)CNC(=O)[C@H](CCCNC(=N)N)NC(=O)[C@H](Cc2ccccc2)NC1=O | 826 nM | 4340 nM | – | – | –
C[C@@H]1NC(=O)[C@@H]2CCCN2C(=O)[C@H]2CCCN2C(=O)[C@H](Cc2ccccc2)NC(=O)[C@H](CC(=O)O)NC(=O)CNC(=O)[C@H](CCCNC(=N)N)NC(=O)[C@H](Cc2ccccc2)NC1=O | 324 nM | 1150 nM | – | – | –
CC(C)C[C@@H]1NC(=O)[C@H](CC(=O)O)NC(=O)CNC(=O)[C@H](CCCNC(=N)N)NC(=O)[C@@H](c2ccccc2)NC(=O)[C@H](C)NC(=O)[C@@H]2CCCN2C(=O)[C@H]2CCCN2C1=O | 48.4 nM | 90.3 nM | – | – | –
CC(C)C[C@@H]1NC(=O)[C@H](CC(=O)O)NC(=O)CNC(=O)[C@H](CCCNC(=N)N)NC(=O)[C@H](C)NC(=O)[C@@H]2CCCN2C(=O)[C@H]2CCCN2C1=O (cyclo(ARGDL[dP]P)) | – | 197 nM | 2.1 | – | –
CC(C)[C@@H]1NC(=O)[C@H](CC(=O)O)NC(=O)CNC(=O)[C@H](CCCNC(=N)N)NC(=O)[C@H](Cc2ccccc2)NC(=O)[C@H](C)NC(=O)[C@@H]2CCCN2C(=O)[C@H]2CCCN2C1=O | – | 467 nM | – | – | Not Active
CC(C)C[C@@H]1NC(=O)[C@H](CC(=O)O)NC(=O)[C@H]([C@@H](C)O)NC(=O)[C@H](CCCNC(=N)N)NC(=O)[C@H](C)NC(=O)[C@@H]2CCCN2C(=O)[C@H]2CCCN2C(=O)[C@H](CC(C)C)NC(=O)[C@H](C)NC(=O)[C@H](C)NC1=O | 264 nM | 1290 nM | – | – | –
CC(C)C[C@@H]1NC(=O)[C@H](CC(=O)O)NC(=O)[C@@H]([C@H](C)O)NC(=O)[C@H](CCCNC(=N)N)NC(=O)[C@H](Cc2ccccc2)NC(=O)[C@H](C)NC(=O)[C@@H]2CCCN2C(=O)[C@H]2CCCN2C1=O | – | – | – | Not Active | Not Active
CC(=O)NCCCCCCN1C(=O)[C@H]2CCCN2C(=O)[C@H](CC(C)C)NC(=O)[C@H](CC(=O)O)NC(=O)CNC(=O)[C@H](CCCNC(=N)N)NC(=O)[C@H](CC(C)C)NC(=O)CNC(=O)[C@@H]1C | – | 20 nM | – | – | –
CC(C)C[C@@H]1NC(=O)[C@H](CO)NC(=O)[C@@H]2CCCN2C(=O)[C@H]2CCCN2C(=O)[C@H](CC(C)C)NC(=O)[C@H](CC(=O)O)NC(=O)CNC(=O)[C@H](CCCNC(=N)N)NC1=O (cyclo(RGDL[dP]PSL)) | – | – | 15 | – | –
CC(=O)NCCCCN1C(=O)[C@H]2CCCN2C(=O)[C@H](CC(C)C)NC(=O)[C@H](CC(=O)O)NC(=O)CNC(=O)[C@H](CCCNC(=N)N)NC(=O)[C@H](CC(C)C)NC(=O)CNC(=O)[C@@H]1C | – | 27 nM | – | – | –
